Source: US20210380630A1, “Bio-catalyzed Synthesis of New Aromatase Inhibitors through Structural Modifications of Anticancer Drug Formestane” (priority 2021, published 2021)
Where two headings read alike, the source gives them in different places.

Assays:
[1] = biological target: T1, aromatase (human placental microsomes) (Homo sapiens, UniProt P11511); assay: human placental aromatase assay; type: biochemical
T1 construct: protein (2 mg) from human placental microsomes; from tissue; host or cells: human placenta (microsomal fraction)
T1 sequence (P11511 1-503): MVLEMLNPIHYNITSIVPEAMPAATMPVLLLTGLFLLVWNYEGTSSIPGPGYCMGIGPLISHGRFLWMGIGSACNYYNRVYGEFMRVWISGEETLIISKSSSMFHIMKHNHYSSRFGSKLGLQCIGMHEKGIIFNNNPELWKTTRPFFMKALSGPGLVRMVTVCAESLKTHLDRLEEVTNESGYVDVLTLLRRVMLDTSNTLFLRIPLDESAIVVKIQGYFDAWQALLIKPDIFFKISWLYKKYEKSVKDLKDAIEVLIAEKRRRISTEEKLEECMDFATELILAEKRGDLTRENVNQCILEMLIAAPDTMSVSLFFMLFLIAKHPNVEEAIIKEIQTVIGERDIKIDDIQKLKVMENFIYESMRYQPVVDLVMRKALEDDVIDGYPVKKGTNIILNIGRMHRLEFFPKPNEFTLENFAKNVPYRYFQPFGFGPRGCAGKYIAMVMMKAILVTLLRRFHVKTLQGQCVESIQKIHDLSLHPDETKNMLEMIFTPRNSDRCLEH

[2] = tested on: human fibroblast (BJ) normal cell line; assay: cytotoxicity against BJ normal cell line

| Compound | IC50 [1] | IC50 ([1]; human placental microsomes, 10 μM testosterone, estradiol by UPLC, read-out: IC50 aromatase inhibition) | cytotoxicity to BJ normal cell line [2] |
| --- | --- | --- | --- |
| C[C@]12CCC(=O)C(O)=C1CC[C@@H]1[C@@H]2CC[C@]2(C)C(=O)CC[C@@H]12 [Compound 1, Formestane] | 335 ± 11 nM | – | – |
| C[C@]12CC[C@H]3[C@@H]([C@@H](O)C[C@@]4(O)C(=O)[C@@H](O)CC[C@]34C)[C@@H]1CCC2=O [Compound 4, 3β,5α,7β-Trihydroxyandrostane-4,17-dione] | 386 ± 72 nM | – | – |
| C[C@]12CC[C@H](O)C(=O)C1C[C@H](O)[C@@H]1[C@@H]2CC[C@]2(C)C(=O)CC[C@@H]12 (stereo partly drawn) [Compound 3, 3β,7β-Dihydroxyandrostane-4,17-dione] | – | 1370 ± 29 nM | – |
| C[C@]12C=CC(=O)C(O)=C1CC[C@@H]1[C@@H]2[C@H](O)C[C@]2(C)C(=O)CC[C@@H]12 [Compound 5, 4,11α-Dihydroxyandrosta-1,4-diene-3,17-dione] | 34300 ± 532 nM | – | non-cytotoxic |
| C[C@]12CC[C@H]3[C@@H]([C@H](O)C[C@@]4(O)[C@H](O)C(=O)CC[C@]34C)[C@@H]1CCC2=O [Compound 2, 4α,5α,7α-Trihydroxyandrostane-3,17-dione] | 5230 ± 94 nM | – | – |
